The results in this text go back to US11249082B2, “Zika virus assay systems” (UNIVERSITY OF MIAMI, priority 2016, dated 2022).

In test [1] the test system is three serotypes of DENV (DENV-1, -2 and -3). Briefly: Direct ELISA cross-reactivity study, ZIKV vs DENV. The class given is binding, Dengue virus (DENV). The note with it: all DENV serotypes; plates coated with 10^5 copies/mL of intact virus particles. The protocol:
(§1) To optimize all parameters of the direct ELISA protocol, Pierce 96-Well Polystyrene Plates, (ThermoFisher Scientific) were coated overnight at 4° C. with different concentrations of intact virus particles (ZIKV or DENV). The intact virus particles were diluted using 100 mM NaHCO3, pH 9.6, and aliquots of 100 μL were dispensed into each well of the plate using a multichannel pipette. This buffer pH assured a strong hydrophobic binding interaction between polystyrene and virus particles.
(§2) Intact particles both ZIKV and DENV were provided by Dr. Watkins group (University of Miami, Dep. of Pathology). The samples were controlled and counted by focus forming assay and RT-PCR, the details were reported in a previous work (Magnani et al., 2017). The Intact particles of ZIKV were inactivated using gamma irradiation. Assay biohazardous steps were carried out according to standard safety procedures.
(§3) The cross-reactivity among Flaviviruses is a key parameter to be tested for this assay. Using the same ELISA protocol, the three clamp peptides (C3, C6 and C7) with higher sensitivity versus the intact ZIKV particles where employed to test the ability to discriminate ZIKV from the three serotypes of DENV (DENV-1, -2 and -3).
(§4) The results shown in FIG. 4 were obtained by coating clear 96-well plates with a solution of 10^^5 copies/mL of intact virus particles. […]

Test [2] deals with intact ZIKV particles. Briefly: Direct ELISA matrix effect in urine and serum. The class given is binding, Zika virus (ZIKV). The note with it: urine diluted 1:1, serum 1:10; 10^5 and 10^6 copies/mL ZIKV coated. The protocol:
Usually, the presence of ZIKV in affected bodies is detected in biological fluids. Therefore, the analytical sensitivity of the selected peptides was tested in two biological matrices, namely, urine and serum. The matrix effect was investigated to understand how real biological fluids could modify the binding efficiency of the peptides.
FIG. 4 depicts the ELISA data using solutions of peptides with or without the urine and serum obtained coating clear 96-well plates with 10^^5 and 10^^6 copies/mL of intact ZIKV particles. Urine and serum were 1:1 and 1:10 diluted, respectively, with a concentrated peptide PBS solution (10 mM PBS, pH 7.4) to obtain a peptide final concentration of 0.5 μM for C3 and C6, 5 μM for C7 and 20 μM for mono-arm peptides (P2 and X1).
In general terms: ELISA stands for enzyme-linked immunosorbent assay.

The test system of test [3] is intact ZIKV particles. Nature of the test: Direct ELISA of biotinylated peptides vs intact ZIKV particles. The note with it: dose-response curves. The class given is binding, Zika virus (ZIKV). The protocol:
as §1, §2
After coating the plates overnight, the intact virus particles were removed by washing five times with the washing buffer (PBST) 10 mM PBS pH 7.4, 0.1% Tween-20, using an automated plate washer (MultiWash+, Molecular Devices, Sunnyvale, Calif.). Then, the plates were blocked with 200 μL of blocking buffers while shaking at 300 rpm at room temperature. The blocking buffers used were: Pierce™ Protein-Free (PBS) Blocking Buffer (PF), Blocker™ BLOTTO in TBS, SuperBlock™ Blocking Buffer, Blocker™ BSA (1×) in PBS. All blocking buffer were from ThermoFisher Scientific.
After 2 h the blocking buffers were removed using the same washing procedure mentioned above. 100 μL-aliquots of several dilutions of peptides biotinylated in 10 mM PBS pH 7.4 were placed in each well and incubated for 2 h while shaking at 300 rpm at room temperature. After the incubation, the unreacted peptides were removed by using the plate washer with the same settings. Then, 100 μL-aliquots of streptavidin-HRP (ThermoFisher Scientific) at a concentration of 20 ng/mL were added into each well and incubated for 30 min at room temperature without shaking. After the incubation, excess streptavidin-HRP was removed and the wells were washed with the plate washer five times using the washing buffer. Finally, 100 μL-aliquots of the Ultra TMB-ELISA Substrate Solution (ThermoFisher Scientific) were added and after 10 min the reaction was stopped by adding 100 μL aliquots of the TMB stop solution (SeraCare). The emission (450 nm) was read using a microplate reader (Clariostar Optima; BMG Labtech, Ortenberg, Germany).
The corresponding blank signals in triplicates were obtained by using all reagents without peptides. The blank signal was then subtracted to the average absorbance values for triplicate wells of each test. […]

For test [4], the system named is DENV-3. Nature of the test: Direct ELISA cross-reactivity study, DENV-3. Format: binding, Dengue virus (DENV). Particulars: plates coated with 10^5 copies/mL of intact virus particles. On the procedure: as §1, §2, §3, §4
Test [5] concerns DENV-2. Briefly: Direct ELISA cross-reactivity study, DENV-2. The class given is binding, Dengue virus (DENV). Particulars: plates coated with 10^5 copies/mL of intact virus particles. The protocol:
as §1, §2, §3, §4

“C7: clamp peptide: MDSPIK (22) - bridge GPGCCGPG (32) - KRNATP (26) (MDSPIKGPGCCGPGKRNATP; C7 Binds to Active Site 2; Bridge peptide; C3 Binds to Active Site 1)”: the “signal decrease, DENV relative to ZIKV” value in test [1] is on record as “around 70%”. Moreover, the “performance in urine and serum” value in test [2] is given as “best performance among the three clamp peptides, having higher signals in serum than in urine”. In addition, in test [3], the “dynamic range width (orders of magnitude)” value (“dynamic range width” below) was “three-order of magnitude dynamic range”.

As to “C-SWPGQ (CSWPGQ; P1) [mono-arm pentapeptide with N-terminal cysteine]”, in test [3], the “dynamic range width” value was “one order of magnitude dynamic range”.

On to “C3: clamp peptide: WPWIGT (18) - bridge GPGCCGPG (32) - KRNATP (26) (WPWIGTGPGCCGPGKRNATP; C3 Binds to Active Site 2; Bridge peptide; C3 Binds to Active Site 1)”, for which the “signal decrease, DENV relative to ZIKV” value in test [1] is listed as “around 70%”. In addition, the “performance in urine and serum” value in test [2] is given as “better performance in urine than serum”. In addition, in test [3], the “dynamic range width” value is given as “three-order of magnitude dynamic range”.

Turning to “C6: clamp peptide: AGRRP (20) - bridge GPGCCGPG (32) - LRGHA (25) (AGRRPGPGCCGPGLRGHA; C5 Binds to Active Site 2; Bridge peptide; C2 Binds to Active Site 1)”, the “signal decrease, DENV-3 relative to ZIKV” value in test [4] was 55%. In test [2], the “performance in urine and serum” value is “strong decrease in the signal”. For the same substance, the “signal decrease, DENV-2 relative to ZIKV” value in test [5] was 45%. Besides, the “dynamic range width” value in test [3] is “three-order of magnitude dynamic range”.
